{"source": "patent US4923990A", "about": "“Pyrindamycins A and B and duocarmycin A antibiotics derived from certain streptomyces culture” (priority 1986, dated 1990)", "key": {"[1]": {"test_system": "Sarcoma 180 solid tumor", "format": "in vivo, male ddY-strain mice", "details": "for Average Tumor Volume / T/C (average tumor volume treated/control): day 10", "experimental": "(1) Therapeutic effect against Sarcoma 180 solid tumor\nSix male ddY-strain mice each having a weight of about 20 g were used for each group as test animals, and 5×10^6 cells of Sarcoma 180 ascites tumor were implanted subcutaneously into the animals at the axilla. 0.2 ml of phosphate buffered saline (hereinafter referred to as PBS) containing DC-88A or DC-89Al at the concentrations shown in Tables 3 and 4 was administered once intraperitoneally 24 hours after implantation.\nThe composition of PBS was 0.8 g/dl NaCl, 0.02 g/dl KCl, […] Na2 HPO4 and 0.02 g/dl KH2 PO4 (pH 7.2).\nThe average tumor volume (mm^3) and T/C [T: average tumor volume of the groups treated with the test compound (mm^3), C: that of control group which received an intraperitoneal administration of 0.2 ml of PBS solution (mm^3)] were determined ten days after implantation.\nFor comparison, 0.2 ml of PBS containing mitomycin C was intraperitoneally administered to a group of animals 24 hours after tumor implantation."}, "[2]": {"test_system": "lymphocytic leukemia P388 tumor", "test": "Therapeutic effect on lymphocytic leukemia P388 tumor", "format": "in vivo, male CDF1 mice", "experimental": "(2) Therapeutic effect on lymphocytic leukemia P388 tumor\nFive male CDF1 mice each having a weight of about 22 g were used for each group as test animals, and 1×10^6 cells of lymphocytic leukemia P388 tumor were implanted intraperitoneally into the test animals. […] The mean survival days after implantation and increased life span (T/C) (T: mean survival days for the treated groups, C: mean survival days for the control group) were calculated.\nFor comparison, 0.2 ml of PBS solution containing mitomycin C was intraperitoneally administered to a group of animals 24 hours after tumor implantation."}, "[3]": {"test": "Acute toxicity", "details": "mouse, in vivo, ip; intraperitoneal administration to mice"}, "[4]": {"test_system": "Salmonella typhi ATCC 9992", "test": "Minimum inhibitory concentration, agar dilution method", "format": "cell-based", "details": "Salmonella enterica, pH 7", "experimental": "(§1) (A) Minimum inhibitory concentration against various microorganisms (MIC μg/ml)\n(§2) The antibacterial activity was measured by the agar dilution method, using a medium (pH 7) prepared by dissolving 3 g of Bacto-Tryptone (Manufacturedby Difco Co., Ltd.), 3 g of meat extract, 1 g of yeast extract, 1 g of glucose and 16 g of agar in 1 l of water."}, "[5]": {"test_system": "Bacillus subtilis No. 10707", "test": "Minimum inhibitory concentration, agar dilution method", "format": "cell-based", "details": "pH 7", "experimental": "as §1, §2"}, "[6]": {"test_system": "Staphylococcus aureus ATCC 6538P", "test": "Minimum inhibitory concentration, agar dilution method", "format": "cell-based", "details": "ATCC6538P, pH 7", "experimental": "as §1, §2"}, "[7]": {"test_system": "Klebsiella pneumoniae ATCC 10031", "test": "Minimum inhibitory concentration, agar dilution method", "format": "cell-based", "details": "ATCC10031, pH 7", "experimental": "as §1, §2"}, "[8]": {"test_system": "Escherichia coli ATCC 26", "test": "Minimum inhibitory concentration, agar dilution method", "format": "cell-based", "details": "ATCC26, pH 7", "experimental": "as §1, §2"}, "[9]": {"test": "Solubility", "format": "physicochemical"}, "[10]": {"test_system": "Shigella sonnei ATCC 9290", "test": "Minimum inhibitory concentration, agar dilution method", "format": "cell-based", "details": "ATCC9290, pH 7", "experimental": "as §1, §2"}, "[11]": {"details": "methanol, ethanol, acetone, chloroform, ethyl acetate, DMSO"}}, "note": "Like-named read-outs stand apart in the source and are kept apart here."}
{"smiles": "COC(=O)C1(C)Nc2c(O)cc3c(c2C1=O)CC(Cl)CN3C(=O)c1cc2cc(OC)c(OC)c(OC)c2[nH]1", "note": "(stereo not drawn) [DC-89Al, duocarmycin Cl]", "values": [{"measurement": "Average Tumor Volume", "setting": "[1]; 0.78125 mg/kg ip once 24 h after implantation, control 1828.0", "result": 1409.5, "unit": "mm^3"}, {"measurement": "T/C (average tumor volume treated/control)", "setting": "[1]; 0.78125 mg/kg ip once", "result": 0.77}, {"measurement": "Toxic (printed in column Average Tumor Volume)", "setting": "[1]; 1.5625 mg/kg ip once 24 h after implantation", "result": "Toxic"}, {"measurement": "Increased Life Span (T/C)", "setting": "[2]; 0.125 mg/kg ip once", "result": 1.28}, {"measurement": "Mean Survival Days", "setting": "[2]; 0.125 mg/kg ip once 24 h after implantation, control 10.7", "result": 13.8, "unit": "days"}, {"measurement": "Increased Life Span (T/C)", "setting": "[2]; 0.25 mg/kg ip once", "result": 1.38}, {"measurement": "Mean Survival Days", "setting": "[2]; 0.25 mg/kg ip once 24 h after implantation, control 10.7", "result": 14.8, "unit": "days"}, {"measurement": "Increased Life Span (T/C)", "setting": "[2]; 0.5 mg/kg ip once", "result": 1.40}, {"measurement": "Mean Survival Days", "setting": "[2]; 0.5 mg/kg ip once 24 h after implantation, control 10.7", "result": 15.0, "unit": "days"}, {"measurement": "Increased Life Span (T/C)", "setting": "[2]; 1 mg/kg ip once", "result": 1.23}, {"measurement": "Mean Survival Days", "setting": "[2]; 1 mg/kg ip once 24 h after implantation, control 10.7", "result": 13.2, "unit": "days"}, {"measurement": "LD50", "setting": "[3]", "result": "~1.17", "unit": "mg/kg"}, {"measurement": "MIC", "setting": "[4]", "result": "> 100", "unit": "µg/mL"}, {"measurement": "MIC", "setting": "[5]", "result": 0.07, "unit": "µg/mL"}, {"measurement": "MIC", "setting": "[6]", "result": "> 8.4", "unit": "µg/mL"}, {"measurement": "MIC", "setting": "[7]", "result": 4.2, "unit": "µg/mL"}, {"measurement": "MIC", "setting": "[8]", "result": "> 100", "unit": "µg/mL"}, {"measurement": "Solubility", "setting": "[9]; [11]", "result": "readily soluble"}, {"measurement": "Solubility", "setting": "[9]; water and hexane (n-hexane)", "result": "sparingly soluble"}]}
{"smiles": "CO[C@@]12[C@H](COC(N)=O)C3=C(C(=O)C(C)=C(N)C3=O)N1C[C@@H]1N[C@@H]12", "note": "[Mitomycin C, mitomycin C, reference compound]", "values": [{"measurement": "Average Tumor Volume", "setting": "[1]; 6 mg/kg ip 24 h after implantation, control 1828.0", "result": 499.6, "unit": "mm^3"}, {"measurement": "T/C (average tumor volume treated/control)", "setting": "[1]; 6 mg/kg ip", "result": 0.27}, {"measurement": "Increased Life Span (T/C)", "setting": "[2]; 6.0 mg/kg ip", "result": 1.60}, {"measurement": "Mean Survival Days", "setting": "[2]; 6.0 mg/kg ip 24 h after implantation, control 10.7", "result": 17.2, "unit": "days"}]}
{"smiles": "COC(=O)C1(C)NC2=C(C1=O)C13CC1CN(C(=O)c1cc4cc(OC)c(OC)c(OC)c4[nH]1)C3=CC2=O", "note": "(stereo not drawn) [DC-88A, duocarmycin A]", "values": [{"measurement": "Average Tumor Volume", "setting": "[1]; 0.195 mg/kg ip once 24 h after implantation, control 2124.7", "result": 1104.8, "unit": "mm^3"}, {"measurement": "T/C (average tumor volume treated/control)", "setting": "[1]; 0.195 mg/kg ip once", "result": 0.52}, {"measurement": "Average Tumor Volume", "setting": "[1]; 0.39 mg/kg ip once 24 h after implantation, control 2124.7", "result": 849.9, "unit": "mm^3"}, {"measurement": "T/C (average tumor volume treated/control)", "setting": "[1]; 0.39 mg/kg ip once", "result": 0.40}, {"measurement": "Average Tumor Volume", "setting": "[1]; 0.78 mg/kg ip once 24 h after implantation, control 2124.7", "result": 467.4, "unit": "mm^3"}, {"measurement": "T/C (average tumor volume treated/control)", "setting": "[1]; 0.78 mg/kg ip once", "result": 0.22}, {"measurement": "Increased Life Span (T/C)", "setting": "[2]; 0.024 mg/kg, continuous administration for five days", "result": 1.43}, {"measurement": "Mean Survival Days", "setting": "[2]; 0.024 mg/kg, continuous administration for five days, control 11.0", "result": 15.7, "unit": "days"}, {"measurement": "Increased Life Span (T/C)", "setting": "[2]; 0.098 mg/kg ip once", "result": 1.08}, {"measurement": "Mean Survival Days", "setting": "[2]; 0.098 mg/kg ip once 24 h after implantation, control 11.0", "result": 11.9, "unit": "days"}, {"measurement": "Increased Life Span (T/C)", "setting": "[2]; 0.195 mg/kg ip once", "result": 1.15}, {"measurement": "Mean Survival Days", "setting": "[2]; 0.195 mg/kg ip once 24 h after implantation, control 11.0", "result": 12.7, "unit": "days"}, {"measurement": "Increased Life Span (T/C)", "setting": "[2]; 0.39 mg/kg ip once", "result": 1.14}, {"measurement": "Mean Survival Days", "setting": "[2]; 0.39 mg/kg ip once 24 h after implantation, control 11.0", "result": 12.5, "unit": "days"}, {"measurement": "Increased Life Span (T/C)", "setting": "[2]; 0.78 mg/kg ip once", "result": 1.12}, {"measurement": "Mean Survival Days", "setting": "[2]; 0.78 mg/kg ip once 24 h after implantation, control 11.0", "result": 12.3, "unit": "days"}, {"measurement": "LD50", "setting": "[3]", "result": "~0.94", "unit": "mg/kg"}, {"measurement": "MIC", "setting": "[4]", "result": 10, "unit": "µg/mL"}, {"measurement": "MIC", "setting": "[10]", "result": 40, "unit": "µg/mL"}, {"measurement": "MIC", "setting": "[5]", "result": 0.05, "unit": "µg/mL"}, {"measurement": "MIC", "setting": "[6]", "result": 0.05, "unit": "µg/mL"}, {"measurement": "MIC", "setting": "[7]", "result": 0.5, "unit": "µg/mL"}, {"measurement": "MIC", "setting": "[8]", "result": 20, "unit": "µg/mL"}, {"measurement": "Solubility", "setting": "[9]; [11]", "result": "Soluble"}, {"measurement": "Solubility", "setting": "[9]; water and hexane (n-hexane)", "result": "sparingly soluble"}]}
